This test relates to Mel-Ab cell line. In words: Inhibition of melanogenesis in Mel-Ab cells (method of Dooley). The test is classed as cell-based, C57BL/6. The following applies: melanin by absorbance at 400 nm after 5 days. The method, then: The effects of New Materials 31 and 32 on inhibiting melanogenesis were compared with Kojic acids which have been known to have an excellent skin whitening effect, and measured.
Specifically, the degree of melanogenesis in cells was measured by a method of Dooley. As the cell line, Mel-Ab cell line (Falcon, U.S.A.) derived from a skin pigment of C57BL/6 was used. Culturing was made under the condition of 37° C., 5% CO2 of a DMEM medium containing 10% placenta serum, 100 nM 12-O-tetradecanoylphorbol-13-acetate, and 1 nM Cholera Toxin. The test materials were treated in the manner where the cultured Mel-Ab cell was isolated with 0.25% trypsin-EDTA, and inoculated again with the same number (1×10^5 cells/well) in the 24-well plate, and then the medium was replaced with a medium containing the test materials for two days from the second day. As the test materials, 5 ppm, 10 ppm, 25 ppm and 50 ppm of New Materials 31 and 32, 25 ppm, 50 ppm and 100 ppm of Kojic acids and DMSO (control) were used. After 5 days, the test materials were treated with 1N-NaOH to dissolve melanin contained in the cell, and the amount of melanin was measured by measuring absorbance at 400 nm. The concentration (IC50) of the material necessary for reducing melanogenesis of melanocyte by half was calculated, and the results are shown in following Table 4.

In turn, `C[C@@H]1O[C@@H](OC[C@H]2O[C@@H](Oc3c(-c4ccc(O)c(O)c4)oc4cc(O)cc(O)c4c3=O)[C@H](O)[C@@H](OC(=O)/C=C/c3ccc(O)cc3)[C@@H]2O)[C@H](O)[C@H](O[C@@H]2O[C@H](CO)[C@@H](O)[C@H](O)[C@H]2O)[C@H]1O` [New Material 31, quercetin3-O-[3-O″-(E)-p-coumaroyl][β-D-glucopyranosyl-(1→3)-O-α-L-rhamnopyranosyl-(1→6)-O-β-D-glucopyranoside]] showed an IC50 inhibiting melanogenesis of 23.5 ppm.
The compound `C[C@@H]1O[C@@H](OC[C@H]2O[C@@H](Oc3c(-c4ccc(O)c(O)c4)oc4cc(O)cc(O)c4c3=O)[C@H](O)[C@@H](OC(=O)/C=C/c3ccc(O)cc3)[C@@H]2O)[C@H](O)[C@H](O)[C@H]1O` [New Material 32, quercetin3-O-[3-O″-(E)-p-coumaroyl][α-L-rhamnopyranosyl-(1→6)-O-β-D-glucopyranoside]] yielded an IC50 inhibiting melanogenesis of 23.5 ppm.

(Values after patent publication US11306117B2, “Whitening composition containing novel quercetin-based compound” (AMOREPACIFIC CORPORATION, priority 2017, dated 2022).)
